The record followed here is ChEMBL document CHEMBL5512622, “Ecto-nucleotide pyrophosphatase/phosphodiesterase 1 inhibitors: Research progress and prospects” (Eur J Med Chem, 2024).

Bounds are passed on as bounds.

Data set [1] concerns the target T1, Ectonucleotide pyrophosphatase/phosphodiesterase family member 1 (Homo sapiens, UniProt P22413).
T1 sequence (P22413 whole entry): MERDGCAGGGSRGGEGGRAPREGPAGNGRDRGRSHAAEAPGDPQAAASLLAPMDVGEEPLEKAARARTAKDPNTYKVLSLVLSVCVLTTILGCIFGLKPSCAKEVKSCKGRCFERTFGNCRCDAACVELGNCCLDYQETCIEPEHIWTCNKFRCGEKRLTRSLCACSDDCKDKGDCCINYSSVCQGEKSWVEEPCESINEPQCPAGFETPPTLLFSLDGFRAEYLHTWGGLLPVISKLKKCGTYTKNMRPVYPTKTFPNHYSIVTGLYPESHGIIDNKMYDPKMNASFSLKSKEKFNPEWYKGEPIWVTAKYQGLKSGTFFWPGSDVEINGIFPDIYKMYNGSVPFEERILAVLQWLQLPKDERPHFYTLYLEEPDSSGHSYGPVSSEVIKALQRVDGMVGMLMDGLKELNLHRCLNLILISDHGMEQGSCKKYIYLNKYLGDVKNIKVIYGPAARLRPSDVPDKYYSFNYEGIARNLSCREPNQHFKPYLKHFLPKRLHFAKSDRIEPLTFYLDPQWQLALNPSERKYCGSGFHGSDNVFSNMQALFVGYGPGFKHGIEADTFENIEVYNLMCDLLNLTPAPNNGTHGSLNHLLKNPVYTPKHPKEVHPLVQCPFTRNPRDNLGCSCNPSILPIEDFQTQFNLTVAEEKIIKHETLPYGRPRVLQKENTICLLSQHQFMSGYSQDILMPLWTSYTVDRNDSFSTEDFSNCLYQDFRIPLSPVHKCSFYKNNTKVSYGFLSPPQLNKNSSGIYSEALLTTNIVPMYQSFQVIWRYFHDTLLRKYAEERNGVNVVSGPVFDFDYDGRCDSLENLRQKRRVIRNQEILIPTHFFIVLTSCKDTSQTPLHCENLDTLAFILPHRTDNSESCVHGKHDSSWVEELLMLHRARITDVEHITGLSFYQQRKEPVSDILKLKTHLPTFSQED
Briefly: Inhibition of human ENPP-1 using 2',3'-cGAMP as substrate preincubated for 15 mins followed by substrate addition and measured after 30 mins by AMP-Glo reagent based assay.

Data set [2] deals with T1, Ectonucleotide pyrophosphatase/phosphodiesterase family member 1. Briefly: Inhibition of recombinant human ENPP-1 using AMP-pNP as substrate incubated for 20 mins by absorbance based plate reader analysis.
The target is the same in data set [3]. Briefly: Inhibition of ENPP1 (unknown origin) using cGAMP as substrate assessed as inhibition constant at pH 7.4.
Data set [4] concerns the target T2, Ectonucleotide pyrophosphatase/phosphodiesterase family member 1 (Mus musculus, UniProt P06802).
T2 sequence (P06802 whole entry): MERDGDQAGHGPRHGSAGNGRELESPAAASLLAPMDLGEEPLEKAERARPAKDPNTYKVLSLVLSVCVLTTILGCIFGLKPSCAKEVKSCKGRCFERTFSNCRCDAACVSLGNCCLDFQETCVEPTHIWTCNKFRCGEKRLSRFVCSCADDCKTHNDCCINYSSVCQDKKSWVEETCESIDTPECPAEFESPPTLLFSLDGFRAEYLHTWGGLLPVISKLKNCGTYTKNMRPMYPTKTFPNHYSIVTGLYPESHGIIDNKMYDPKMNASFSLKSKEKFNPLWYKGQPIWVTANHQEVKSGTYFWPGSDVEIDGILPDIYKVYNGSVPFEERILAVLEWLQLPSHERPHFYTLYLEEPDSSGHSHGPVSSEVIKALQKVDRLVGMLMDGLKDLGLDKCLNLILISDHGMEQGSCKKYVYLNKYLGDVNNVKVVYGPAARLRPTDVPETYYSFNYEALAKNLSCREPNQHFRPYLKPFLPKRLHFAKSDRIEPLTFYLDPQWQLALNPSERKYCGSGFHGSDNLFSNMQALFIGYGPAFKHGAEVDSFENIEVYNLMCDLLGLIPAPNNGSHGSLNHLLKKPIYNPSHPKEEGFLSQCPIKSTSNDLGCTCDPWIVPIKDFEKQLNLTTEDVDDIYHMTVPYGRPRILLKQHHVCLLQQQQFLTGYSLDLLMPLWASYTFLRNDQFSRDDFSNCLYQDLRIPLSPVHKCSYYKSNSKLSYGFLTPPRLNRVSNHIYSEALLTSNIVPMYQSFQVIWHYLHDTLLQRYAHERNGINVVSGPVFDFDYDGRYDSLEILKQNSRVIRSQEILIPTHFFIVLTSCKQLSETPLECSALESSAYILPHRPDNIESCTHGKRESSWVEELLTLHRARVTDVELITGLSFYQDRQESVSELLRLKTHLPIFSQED
Nature of the data set: Inhibition of ENPP1 in mouse plasma using [32P]cGAMP as substrate. Format: cell-free.

The nature of data set [5]: Cmax in CD-1 mouse at 50 mg/kg, po measured after 24 hrs by LC-MS/MS analysis. Format: ADME, organism-based. Particulars: in vivo.
Data set [6] can be described thus: AUClast in CD-1 mouse at 50 mg/kg, po measured after 24 hrs by LC-MS/MS analysis. Type of data set: ADME, organism-based. Particulars: in vivo.
For data set [7], the target named is T3, Ectonucleotide pyrophosphatase/phosphodiesterase family member 1 (Homo sapiens) (UniProt P22413).
T3 sequence (whole entry): T1 sequence (P22413 whole entry)
Nature of the data set: Binding affinity to recombinant human ENPP1 assessed as thermal stabilization by measuring change in melting temperature incubated for 5 mins by SYPRO orange dye based thermal shift assay.

A short description of data set [8]: Half-life in ICR mouse at 5 mg/kg, po measured after 24 hrs by LC/MS/MS analysis. Format: ADME, organism-based. Particulars: in vivo.
The nature of data set [9]: Cmax in ICR mouse at 5 mg/kg, po measured after 24 hrs by LC/MS/MS analysis. Type of data set: ADME, organism-based. Particulars: in vivo.
The nature of data set [10]: AUC in ICR mouse at 5 mg/kg, po measured after 24 hrs by LC/MS/MS analysis. Particulars: in vivo. Format: ADME, organism-based.
The test system of data set [11] is MDA-MB-231. Briefly: Antiproliferative activity against human MDA-MB-231 cells incubated for 48 hrs by CCK8 assay. The following applies: MDA-MB-231, 48 h.
Data set [12] concerns the target T1, Ectonucleotide pyrophosphatase/phosphodiesterase family member 1. Briefly: Inhibition of recombinant human ENPP1 using ATP as substrate assessed as inhibition constant incubated for 30 mins by Lineweaver-Burk plot analysis.
For data set [13] the target is unchanged. Briefly: Inhibition of recombinant human ENPP1 using 2',3'-cGAMP as substrate preincubated for 5 to 10 mins followed by substrate addition and measured after 90 mins by […] assay. (ADP-Glo turns the ADP formed in a reaction into a luminescent signal.)
The target is the same in data set [14]. Nature of the data set: Inhibition of recombinant human ENPP1 using p-NP-TMP as substrate incubated for 45 mins by absorbance based analysis.
Data set [15] has the same target. Briefly: Inhibition of ENPP1 (unknown origin) using TMP-pNP as substrate preincubated for 10 mins followed by substrate addition and measured immediately under pH 8.8 by absorbance based multimode plate reader analysis.
For data set [16] the target is unchanged. Nature of the data set: Inhibition of ENPP1 in HEK293 cells using 2',3'-cGAMP as substrate by AMP-Glo assay. Format: cell-based.
For data set [17] the target is unchanged. Briefly: Inhibition of ENNP1 (unknown origin) using 2',3'-cGAMP as substrate preincubated with compound followed by substrate addition and measured after 60 mins by AMP-Glo reagent based assay.

One may read the IC50 as the point on the concentration scale where inhibition reaches its midpoint. Consider `COc1cc2ncc3ncn(Cc4ccc(CS(N)(=O)=O)cn4)c3c2cc1OC`, for which the IC50 in data set [1] and in [2] was less than 100 nM in each case. What is called Ki is the equilibrium dissociation constant of an inhibitor or competing ligand from its target. What is called Cmax is the highest concentration seen after dosing. By AUC(0-t) is commonly meant exposure summed from dosing to a finite time, without extrapolation to infinity. Regarding `COc1cccc2c(N3CCC(CCP(=O)(O)O)CC3)ncnc12`, the inhibition constant (Ki) is less than 2 nM in [3] and 4 nM in data set [4]. The compound also showed a Cmax in data set [5] of 67.2 ng/mL. This compound had an AUC(0-t) at 24 h in data set [6] of 344 ng·h/mL. As usually defined, the ΔTm is the change in melting temperature against a reference sample. With `COc1ccc(NC(=O)CSc2nc3c(C)c(C#N)ncc3[nH]2)cc1O`, the ΔTm in [7] came to 1.11 °C. By half-life is commonly meant how long it takes for the measured level to halve. A high value points to slow decline. As a reminder, the AUC is the area under the concentration-time curve, a measure of exposure. For `COc1ccc2c(Oc3ccc(CC(=O)NO)cc3)ccnc2n1`, the half-life in data set [8] is 3.26 h. This compound came in with a Cmax in data set [9] of 736 ng/mL. The compound further showed an AUC at 24 h in [10] of 619 ng·h/mL.

Turning to `COc1ccc2[nH]c(SCc3nc4cc(F)ccc4c(=O)[nH]3)nc2c1`, the concentration for half-maximal inhibition (IC50) in data set [11] is less than 1000 nM. Consider `CSc1nc(N)c2ncn([C@@H]3O[C@H](COP(=O)(O)OP(=O)(O)OP(=O)(O)O)[C@@H](O)[C@H]3O)c2n1`, for which, in data set [12], the Ki is 5000 nM. Take `COc1ccc2c(c1)nnn2-c1ccc(CNS(N)(=O)=O)c(F)c1`: in data set [13], the IC50 was less than 1000 nM.

Consider `CSc1nc(N)c2ncn([C@@H]3O[C@H](COP(=O)(O)OP(=O)(O)O)[C@@H](O)[C@H]3O)c2n1`, for which the Ki in data set [12] is 5000 nM.

For `COc1ccc(NC(=O)CSc2nc(C(=O)O)c[nH]2)cc1Cl`, the IC50 in data set [14] was less than 200 nM. For `NC(=O)c1c[nH]c2c(NCc3ccc(B(O)O)cc3)ncnc12`, in [15], the Ki is less than 100 nM. The same measure, in the same setting: the result for `NC(=O)c1c[nH]c2c(NCc3ccc(P(=O)(O)O)cc3)ncnc12` reads less than 100 nM. `COc1cc2c(-c3ccc(CNS(N)(=O)=O)c(F)c3)n[nH]c(=O)c2cc1OC`: the concentration for half-maximal inhibition (IC50) in data set [13] is less than 1000 nM. Turning to `Nc1ncnc2c1ncn2[C@@H](C=O)O[C@@H](C=O)COP(=O)(O)OP(=O)(O)OP(=O)(O)O`, the inhibition constant (Ki) in data set [12] is 5000 nM. As to `Nc1ncnc2c1ncn2[C@@H]1O[C@H](COP(=O)(O)CP(=O)(O)O)[C@@H](O)[C@H]1O` [PHOSPHOMETHYLPHOSPHONIC ACID ADENOSYL ESTER], the Ki in data set [12] is 5000 nM.

On to `COc1cccc2c(N3CCC(CC(CNC(=O)[C@@H](N)C(C)(C)C)P(=O)(O)O)CC3)ncnc12` (stereo partly specified), for which the Ki in [3] was less than 10 nM. For the same compound, in data set [16], the IC50 is less than 10 nM. In data set [5], this compound returned a Cmax of 1680 ng/mL. In data set [6], this compound gave an AUC(0-t) at 24 h of 4130 ng·h/mL. On to `Nc1ccc(F)c(-c2ccnc3c2CCC(=O)N3)c1`, for which the IC50 in [13] was less than 1000 nM.

For `NC(=O)c1ccc2c(ncn2Cc2ccc(B(O)O)cc2)n1`, the IC50 in data set [15] was less than 10 nM. `COc1ccc(NC(=O)CSc2nc(C(=O)OCC(O)CO)c[nH]2)cc1OC` (stereo unspecified): the 50% inhibitory concentration (IC50) in data set [14] was less than 200 nM. Turning to `COc1cccc2c(N3CCC(CCP(=O)(O)O)CC3)c(C#N)cnc12`, the Ki in data set [3] is less than 2 nM. Regarding `COc1ncc2nc(C(F)(F)F)n(Cc3ncc(S(N)(=O)=O)cc3F)c2c1-c1ccccc1`, the IC50 in [17] was less than 1 nM. For `Nc1ncnc2c1ncn2[C@@H]1O[C@H](COP(=O)(O)OP(=O)(O)OP(=O)(O)O)[C@@H](OC(=O)c2ccc(C(=O)c3ccccc3)cc2)[C@H]1O`, the Ki in data set [12] was found to be 5000 nM. For `COc1ccc(NC(=O)CSc2nc(C(N)=O)c[nH]2)cc1OC`, the IC50 in [14] was less than 200 nM.
